What was measured:
Assay in all cases: Ceftazidime MIC with fixed concentration of BLI
Type in all cases: cell-based
[1] = tested on: ec307 Escherichia coli SHV-4; conditions: derivative at 10 μg/mL; ec307 SHV-4
Method: (§1) Next, ceftazidime potentiation activity of several cyclic boronic acid ester derivatives was tested using a larger panel of strains expressing β-lactamase hydrolyzing enzymes. Ceftazidime MICs were determined alone and in the presence of fixed concentrations of various cyclic boronic acid ester derivatives.

[2] = tested on: EC1009 Escherichia coli TEM-10; conditions: derivative at 10 μg/mL; EC1009 TEM-10
Method: as §1

[3] = tested on: KP1010 Klebsiella pneumoniae SHV-12; conditions: derivative at 10 μg/mL; KP1010 SHV-12
Method: as §1

[4] = tested on: KX1000 Klebsiella oxytoca OXA-2; conditions: derivative at 10 μg/mL; KX1000 OXA-2
Method: as §1

[5] = tested on: ec301 Escherichia coli TEM-6; conditions: derivative at 10 μg/mL; ec301 TEM-6
Method: as §1

[6] = tested on: PAM2035 Pseudomonas aeruginosa ampC mexA:tet; conditions: derivative at 10 μg/mL
Method: as §1

[7] = tested on: ec306 Escherichia coli SHV-2; conditions: derivative at 10 μg/mL; ec306 SHV-2
Method: as §1

[8] = tested on: EC1014 Escherichia coli DHA-1; conditions: derivative at 10 μg/mL; EC1014 DHA-1
Method: as §1

[9] = tested on: AB1057 Acinetobacter baumannii OXA-58; conditions: derivative at 10 μg/mL; AB1057 OXA-58
Method: as §1

[10] = tested on: ec309 Escherichia coli MIR-1; conditions: derivative at 10 μg/mL; ec309 MIR-1
Method: as §1

[11] = tested on: EC1008 Escherichia coli CTX-M3; conditions: derivative at 10 μg/mL
Method: as §1

[12] = tested on: EC1007 Escherichia coli KPC-3; conditions: derivative at 10 μg/mL; EC1007 KPC-3
Method: as §1

[13] = tested on: ECL1002 Enterobacter cloacae Hyper AmpC expression; conditions: derivative at 10 μg/mL
Method: as §1

[14] = tested on: KP1008 Klebsiella pneumoniae KPC-2; conditions: derivative at 10 μg/mL; KP1008 KPC-2
Method: as §1

[15] = tested on: EC1012 Escherichia coli TEM-12; conditions: derivative at 10 μg/mL; EC1012 TEM-12
Method: as §1

[16] = tested on: EC1010 Escherichia coli CMY-6; conditions: derivative at 10 μg/mL; EC1010 CMY-6
Method: as §1

[17] = tested on: EC1011 Escherichia coli TEM-26; conditions: derivative at 10 μg/mL; EC1011 TEM-26
Method: as §1

[18] = tested on: AB1054 Acinetobacter baumannii OXA-23; conditions: derivative at 10 μg/mL; AB1054 OXA-23
Method: as §1

[19] = tested on: pa1063 Pseudomonas aeruginosa GES-1; conditions: derivative at 10 μg/mL; pa1063 GES-1
Method: as §1

[20] = tested on: ec308 Escherichia coli SHV-5; conditions: derivative at 10 μg/mL; ec308 SHV-5
Method: as §1

[21] = tested on: KP1012 Klebsiella pneumoniae SHV-18; conditions: derivative at 10 μg/mL; KP1012 SHV-18
Method: as §1

[22] = tested on: CF1000 Citrobacter freundii Hyper AmpC expression; conditions: derivative at 10 μg/mL
Method: as §1

[23] = tested on: EC1004 Escherichia coli CMY-2; conditions: derivative at 10 μg/mL; EC1004 CMY-2
Method: as §1

[24] = tested on: KP1007 Klebsiella pneumoniae OXA-10; conditions: derivative at 10 μg/mL; KP1007 OXA-10
Method: as §1

[25] = tested on: KP1009 Klebsiella pneumoniae CTX-M-15; conditions: derivative at 10 μg/mL; KP1009 CTX-M-15
Method: as §1

[26] = tested on: EC1006 Escherichia coli FOX-5; conditions: derivative at 10 μg/mL; EC1006 FOX-5
Method: as §1

[27] = tested on: ec303 Escherichia coli TEM-12; conditions: derivative at 10 μg/mL; ec303 TEM-12
Method: as §1

[28] = tested on: ec310 Escherichia coli ACT-1; conditions: derivative at 10 μg/mL; ec310 ACT-1
Method: as §1

[29] = tested on: KP1004 Klebsiella pneumoniae KPC-2; conditions: derivative at 10 μg/mL; KP1004 KPC-2
Method: as §1

[30] = tested on: PAM2005 Pseudomonas aeruginosa ampC; conditions: derivative at 10 μg/mL
Method: as §1

[31] = tested on: KP1005 Klebsiella pneumoniae CTX-M-14; conditions: derivative at 10 μg/mL; KP1005 CTX-M-14
Method: as §1

Row | SMILES | Ceftazidime MIC with cyclic boronic acid ester derivative [1] | Ceftazidime MIC with cyclic boronic acid ester derivative [2] | Ceftazidime MIC with cyclic boronic acid ester derivative [3] | Ceftazidime MIC with cyclic boronic acid ester derivative [4] | Ceftazidime MIC with cyclic boronic acid ester derivative [5] | Ceftazidime MIC with cyclic boronic acid ester derivative [6] | Ceftazidime MIC with cyclic boronic acid ester derivative [7] | Ceftazidime MIC with cyclic boronic acid ester derivative [8] | Ceftazidime MIC with cyclic boronic acid ester derivative [9] | Ceftazidime MIC with cyclic boronic acid ester derivative [10] | Ceftazidime MIC with cyclic boronic acid ester derivative [11] | Ceftazidime MIC with cyclic boronic acid ester derivative [12] | Ceftazidime MIC with cyclic boronic acid ester derivative [13] | Ceftazidime MIC with cyclic boronic acid ester derivative [14] | Ceftazidime MIC with cyclic boronic acid ester derivative [15] | Ceftazidime MIC with cyclic boronic acid ester derivative [16] | Ceftazidime MIC with cyclic boronic acid ester derivative [17] | Ceftazidime MIC with cyclic boronic acid ester derivative [18] | Ceftazidime MIC with cyclic boronic acid ester derivative [19] | Ceftazidime MIC with cyclic boronic acid ester derivative [20] | further results
1 | O=C(O)C[C@@H]1CC[C@H](NC(=O)Cc2ccccc2)B(O)O1 [Compound 6, 2-((3R,6S)-2-hydroxy-3-(2-phenylacetamido)-1,2-oxaborinan-6-yl)acetic acid] | Z (MIC of greater than 8 μg/mL) | Z (MIC of greater than 8 μg/mL) | Y (MIC of greater than 1 μg/mL to 8 μg/mL) | Y (MIC of greater than 1 μg/mL to 8 μg/mL) | Z (MIC of greater than 8 μg/mL) | Y (MIC of greater than 1 μg/mL to 8 μg/mL) | Z (MIC of greater than 8 μg/mL) | X (MIC of 1 μg/mL or less) | Z (MIC of greater than 8 μg/mL) | X (MIC of 1 μg/mL or less) | Y (MIC of greater than 1 μg/mL to 8 μg/mL) | X (MIC of 1 μg/mL or less) | Y (MIC of greater than 1 μg/mL to 8 μg/mL) | X (MIC of 1 μg/mL or less) | Y (MIC of greater than 1 μg/mL to 8 μg/mL) | Y (MIC of greater than 1 μg/mL to 8 μg/mL) | Z (MIC of greater than 8 μg/mL) | Z (MIC of greater than 8 μg/mL) | Z (MIC of greater than 8 μg/mL) | Z (MIC of greater than 8 μg/mL) | Ceftazidime MIC with cyclic boronic acid ester derivative [21]: Y (MIC of greater than 1 μg/mL to 8 μg/mL); Ceftazidime MIC with cyclic boronic acid ester derivative [22]: Y (MIC of greater than 1 μg/mL to 8 μg/mL); Ceftazidime MIC with cyclic boronic acid ester derivative [23]: Y (MIC of greater than 1 μg/mL to 8 μg/mL); Ceftazidime MIC with cyclic boronic acid ester derivative [24]: Y (MIC of greater than 1 μg/mL to 8 μg/mL); Ceftazidime MIC with cyclic boronic acid ester derivative [25]: Z (MIC of greater than 8 μg/mL); Ceftazidime MIC with cyclic boronic acid ester derivative [26]: Y (MIC of greater than 1 μg/mL to 8 μg/mL); Ceftazidime MIC with cyclic boronic acid ester derivative [27]: Y (MIC of greater than 1 μg/mL to 8 μg/mL); Ceftazidime MIC with cyclic boronic acid ester derivative [28]: X (MIC of 1 μg/mL or less); Ceftazidime MIC with cyclic boronic acid ester derivative [29]: Y (MIC of greater than 1 μg/mL to 8 μg/mL); Ceftazidime MIC with cyclic boronic acid ester derivative [30]: Z (MIC of greater than 8 μg/mL); Ceftazidime MIC with cyclic boronic acid ester derivative [31]: Z (MIC of greater than 8 μg/mL)
2 | Cl.N[C@H]1CCC(CC(=O)O)OB1O (stereo partly drawn) [Compound 7, 2-((3R)-3-amino-2-hydroxy-1,2-oxaborinan-6-yl)acetic acid hydrochloride] | Z (MIC of greater than 8 μg/mL) | Z (MIC of greater than 8 μg/mL) | Z (MIC of greater than 8 μg/mL) | Y (MIC of greater than 1 μg/mL to 8 μg/mL) | Z (MIC of greater than 8 μg/mL) | Z (MIC of greater than 8 μg/mL) | Z (MIC of greater than 8 μg/mL) | Z (MIC of greater than 8 μg/mL) | Z (MIC of greater than 8 μg/mL) | Z (MIC of greater than 8 μg/mL) | Z (MIC of greater than 8 μg/mL) | Z (MIC of greater than 8 μg/mL) | Z (MIC of greater than 8 μg/mL) | Z (MIC of greater than 8 μg/mL) | Z (MIC of greater than 8 μg/mL) | Z (MIC of greater than 8 μg/mL) | Z (MIC of greater than 8 μg/mL) | Z (MIC of greater than 8 μg/mL) | Z (MIC of greater than 8 μg/mL) | Z (MIC of greater than 8 μg/mL) | Ceftazidime MIC with cyclic boronic acid ester derivative [21]: Z (MIC of greater than 8 μg/mL); Ceftazidime MIC with cyclic boronic acid ester derivative [22]: Z (MIC of greater than 8 μg/mL); Ceftazidime MIC with cyclic boronic acid ester derivative [23]: Z (MIC of greater than 8 μg/mL); Ceftazidime MIC with cyclic boronic acid ester derivative [24]: Z (MIC of greater than 8 μg/mL); Ceftazidime MIC with cyclic boronic acid ester derivative [25]: Z (MIC of greater than 8 μg/mL); Ceftazidime MIC with cyclic boronic acid ester derivative [26]: Z (MIC of greater than 8 μg/mL); Ceftazidime MIC with cyclic boronic acid ester derivative [27]: Z (MIC of greater than 8 μg/mL); Ceftazidime MIC with cyclic boronic acid ester derivative [28]: Z (MIC of greater than 8 μg/mL); Ceftazidime MIC with cyclic boronic acid ester derivative [29]: Z (MIC of greater than 8 μg/mL); Ceftazidime MIC with cyclic boronic acid ester derivative [30]: Z (MIC of greater than 8 μg/mL); Ceftazidime MIC with cyclic boronic acid ester derivative [31]: Z (MIC of greater than 8 μg/mL)

From patent publication US11090319B2, “Therapeutic uses of pharmaceutical compositions comprising cyclic boronic acid ester derivatives” (Melinta Subsidiary Corp., priority 2010, dated 2021)
